For the first assay, the system named is PC-3. The assay can be described thus: PC-3 cell proliferation assay (WST-1). In kind it is cell-based. To be noted: Homo sapiens; inhibitory activity against PC-3 cell proliferation. The procedure: A panel of cancer cell lines is obtained from the DCTP Tumor Repository, National Cancer Institute (Frederick, Md.) or ATCC (Rockville, Md.). Cell cultures are maintained in Hyclone RPMI 1640 medium (Logan, Utah) supplemented with 10% fetal bovine serum and 20 mM HEPES buffer, final pH 7.2, at 37° C. with a 5% CO2 atmosphere. Cultures are maintained at sub-confluent densities. Human umbilical vein endothelial cells (HUVEC) are purchased from Clonetics, a division of Cambrex (Walkersville, Md.). Cultures are established from cryopreserved stocks using Clonetics EGM-2 medium supplemented with 20 mM HEPES, final pH 7.2, at 37° C. with a 5% CO2 atmosphere.
For proliferation assays, cells are seeded with the appropriate medium into 96 well plates at 1,000-2,500 cells per well, depending on the cell line, and are incubated overnight. The following day, test compound, DMSO solution (negative control), or Actinomycin D (positive control) is added to the appropriate wells as 10× concentrated stocks prepared in phosphate buffered saline. The cell plates are then incubated for an additional 2-5 days, depending on the cell line, to allow proliferation to occur. To measure cell density, 50 μL of WST-1 solution (Roche Applied Science, IN) diluted 1:5 in phosphate buffered saline is added to each well, and the cells incubated for an additional 1-5 hrs., again depending on the cell line. Optical density is determined for each well at […] using a Tecan GeniosPro plate reader (RTP, NC). The percentage of cell growth is determined by comparing the cell growth in the presence of test compounds to the cells treated with DMSO vehicle (control, 100% growth) and cells treated with Actinomycin D (10 μM, 0% growth). […]
In turn, `Cc1cn(-c2ccc3c(N)ncc(N)c3c2)c2c1C(=O)CC(C)(C)C2` [Compound 121, 1-(1,4-diaminoisoquinolin-6-yl)-3,6,6-trimethyl-6,7-dihydro-1H-indol-4(5H)-one] gave an IC50 of 5 to 50 µM.
`Cc1cn(-c2ccc3c(N)ncnc3c2F)c2c1C(=O)CC(C)(C)C2` [Compound 43, 1-(4-amino-8-fluoroquinazolin-7-yl)-3,6,6-trimethyl-6,7-dihydro-1H-indol-4(5H)-one] returned an IC50 of 0.5 to 5 µM.
As for `Cc1cn(-c2ccc3c(O)ncnc3c2)c2c1C(=O)CC(C)(C)C2` [Compound 90, 1-(4-hydroxyquinazolin-7-yl)-3,6,6-trimethyl-6,7-dihydro-1H-indol-4(5H)-one], the IC50 is less than 0.5 µM.
Same read-out and setting: as for `CCOc1c(-n2cc(C)c3c2CC(C)(C)CC3=O)ccc2c(N)ncnc12` [Compound 62, 1-(4-amino-8-ethoxyquinazolin-7-yl)-3,6,6-trimethyl-6,7-dihydro-1H-indol-4(5H)-one], the figure is 0.5 to 5 µM; as for `CC1(C)CC(=O)c2c(CC3CC3)nn(-c3ccc4c(N)ncnc4c3)c2C1` [Compound 83, 1-(4-aminoquinazolin-7-yl)-3-(cyclopropylmethyl)-6,6-dimethyl-6,7-dihydro-1H-indazol-4(5H)-one], 5 to 50 µM.
On the same count and under the same terms, as for `Cc1cn(-c2ccc3c(N)ncnc3c2F)c2c1C(=O)CC(C)C2` (stereo not shown) [Compound 65, 1-(4-amino-8-fluoroquinazolin-7-yl)-3,6-dimethyl-6,7-dihydro-1H-indol-4(5H)-one], the figure is 0.5 to 5 µM; as for `Cc1cn(-c2ccc3c(N)ncnc3c2)c2c1C(=O)CC(C)(C)C2` [Compound 39, 1-(4-aminoquinazolin-7-yl)-3,6,6-trimethyl-6,7-dihydro-1H-indol-4(5H)-one], 0.5 to 5 µM; as for `Cc1c2c(n(-c3ccc4c(N)ncnc4c3)c1C)CC(C)(C)CC2=O` [Compound 92, 1-(4-aminoquinazolin-7-yl)-2,3,6,6-tetramethyl-6,7-dihydro-1H-indol-4(5H)-one], less than 0.5 µM.
The same measure, in the same setting: as for `Cc1nn(-c2ccc3c(N)ncc(Br)c3c2)c2c1C(=O)CC(C)(C)C2` [Compound 47, 1-(1-amino-4-bromoisoquinolin-6-yl)-3,6,6-trimethyl-6,7-dihydro-1H-indazol-4(5H)-one], the figure is 5 to 50 µM.
In the case of `Cc1cn(-c2ccc3c(C)nc(N)nc3c2)c2c1C(=O)CC(C)(C)C2` [Compound 128, 1-(2-amino-4-methylquinazolin-7-yl)-3,6,6-trimethyl-6,7-dihydro-1H-indol-4(5H)-one], the IC50 was less than 0.5 µM.
Regarding `Cc1cn(-c2ccc3c(N)ncnc3c2OCCN(C)C)c2c1C(=O)CC(C)(C)C2` [Compound 52, 1-(4-amino-8-(2-(dimethylamino)ethoxy)quinazolin-7-yl)-3,6,6-trimethyl-6,7-dihydro-1H-indol-4(5H)-one], the IC50 was in the range of 5 to 50 µM.
Take `CC(=O)c1cnc(N)c2ccc(-n3cc(C)c4c3CC(C)(C)CC4=O)cc12` [Compound 107, 1-(4-acetyl-1-aminoisoquinolin-6-yl)-3,6,6-trimethyl-6,7-dihydro-1H-indol-4(5H)-one]: the IC50 fell in the range of 0.5 to 5 µM.
The molecule `CCCCSc1c(-n2cc(C)c3c2CC(C)(C)CC3=O)ccc2c(N)ncnc12` [Compound 54, 1-(4-amino-8-(butylthio)quinazolin-7-yl)-3,6,6-trimethyl-6,7-dihydro-1H-indol-4(5H)-one] had an IC50 of 0.5 to 5 µM.
Regarding `Cc1cn(-c2ccc3c(N)ncc(C(N)=O)c3c2)c2c1C(=O)CC(C)(C)C2` [Compound 104, 1-amino-6-(3,6,6-trimethyl-4-oxo-4,5,6,7-tetrahydro-1H-indol-1-yl)isoquinoline-4-carboxamide], the half-maximal inhibitory concentration (IC50) fell in the range of 5 to 50 µM.
`CCCCSc1cc(-n2cc(C)c3c2CC(C)(C)CC3=O)cc2ncnc(N)c12` [Compound 73, 1-(4-amino-5-(butylthio)quinazolin-7-yl)-3,6,6-trimethyl-6,7-dihydro-1H-indol-4(5H)-one]: the IC50 was 5 to 50 µM.
On to `Cc1cn(-c2ccc3c(N)ncnc3c2SCCNCC(C)(C)C)c2c1C(=O)CC(C)(C)C2` [Compound 81, 1-(4-amino-8-(2-(neopentylamino)ethylthio)quinazolin-7-yl)-3,6,6-trimethyl-6,7-dihydro-1H-indol-4(5H)-one], for which the half-maximal inhibitory concentration (IC50) is less than 0.5 µM.
The same measure, in the same setting: as for `Cc1cc2c(n1-c1cnc3c(N)ncnc3c1)CC(C)(C)CC2=O` [Compound 38, 1-(4-aminopyrido[3,2-d]pyrimidin-7-yl)-2,6,6-trimethyl-6,7-dihydro-1H-indol-4(5H)-one], the figure is 5 to 50 µM; as for `Cc1cn(-c2ccc3c(N)ncnc3c2OC2CCOCC2)c2c1C(=O)CC(C)(C)C2` [Compound 133, 1-(4-amino-8-(tetrahydro-2H-pyran-4-yloxy)quinazolin-7-yl)-3,6,6-trimethyl-6,7-dihydro-1H-indol-4(5H)-one], 0.5 to 5 µM; as for `Cc1cn(-c2cnc3c(N)ncnc3c2)c2c1C(=O)CC(C)(C)C2` [Compound 66, 1-(4-aminopyrido[3,2-d]pyrimidin-7-yl)-3,6,6-trimethyl-6,7-dihydro-1H-indol-4(5H)-one], 0.5 to 5 µM.
Consider `C/C(=N\O)c1cnc(N)c2ccc(-n3cc(C)c4c3CC(C)(C)CC4=O)cc12` [Compound 102, (E)-1-(1-amino-4-(1-(hydroxyimino)ethyl)isoquinolin-6-yl)-3,6,6-trimethyl-6,7-dihydro-1H-indol-4(5H)-one], for which the IC50 was 5 to 50 µM.
On the same count and under the same terms, the value for `CC1(C)CC(=O)c2c(C(F)F)nn(-c3ccc4c(N)ncc(C#N)c4c3)c2C1` [Compound 94, 1-amino-6-(3-(difluoromethyl)-6,6-dimethyl-4-oxo-4,5,6,7-tetrahydro-1H-indazol-1-yl)isoquinoline-4-carbonitrile] was 0.5 to 5 µM; that for `COc1cc(COc2cc(-n3cc(C)c4c3CC(C)(C)CC4=O)cc3ncnc(N)c23)cc(OC)c1` [Compound 78, 1-(4-amino-5-(3,5-dimethoxybenzyloxy)quinazolin-7-yl)-3,6,6-trimethyl-6,7-dihydro-1H-indol-4(5H)-one] was 0.5 to 5 µM.
With `Cc1cn(-c2cc(F)c3c(N)nc(N)nc3c2)c2c1C(=O)CC(C)(C)C2` [Compound 126, 1-(2,4-diamino-5-fluoroquinazolin-7-yl)-3,6,6-trimethyl-6,7-dihydro-1H-indol-4(5H)-one], the 50% inhibitory concentration (IC50) fell in the range of 0.5 to 5 µM.
Still for that read-out and setting: as for `Cc1cn(-c2ccc3c(N)ncnc3c2SCCNC(C)(C)C)c2c1C(=O)CC(C)(C)C2` [Compound 110, 1-(4-amino-8-(2-(tert-butylamino)ethylthio)quinazolin-7-yl)-3,6,6-trimethyl-6,7-dihydro-1H-indol-4(5H)-one], the figure is 0.5 to 5 µM; as for `Cc1cn(-c2cnc3c(N)nc(N)nc3c2)c2c1C(=O)CC(C)(C)C2` [Compound 139, 1-(2,4-diaminopyrido[3,2-d]pyrimidin-7-yl)-3,6,6-trimethyl-6,7-dihydro-1H-indol-4(5H)-one], less than 0.5 µM; as for `CC1(C)CC(=O)c2c(C(F)(F)F)nn(-c3ccc4c(N)ncnc4c3)c2C1` [Compound 51, 1-(4-aminoquinazolin-7-yl)-6,6-dimethyl-3-(trifluoromethyl)-6,7-dihydro-1H-indazol-4(5H)-one], 5 to 50 µM.

Another assay concerns HSP-90 (heat shock protein 90). The assay can be described thus: Determination of affinity for HSP-90 (elution from purine affinity column). Also: key: +++: very high; ++: high; +: moderate. Particulars: relative binding affinity to HSP-90. As for the experimental part: Affinity of test compounds for HSP-90 is determined as follows: Protein mixtures obtained from a variety of organ tissues (for example: spleen, liver and lung) are reversibly bound to a purine affinity column to capture purine-binding proteins, especially HSP-90. […] The elution profile of Formula I compounds is determined by 1-dimensional SDS polyacrylamide gel electrophoresis. Gels are stained with a fluorescent stain such as sypro ruby (a highly sensitive fluorescent protein stain that can readily detect less than 1 fmol of total protein, i.e., less than 0.04 ng for a 40 kDa protein) or silver nitrate. The gels are imaged using a standard flat bed gel imager and the amount of protein estimated by densitometry. The percent of HSP-90 protein eluted from the column at each concentration is determined and IC50 values are calculated from these estimates.
On to `Cc1cn(-c2cc(F)c3c(N)ncnc3c2)c2c1C(=O)CC(C)(C)C2` [Compound 63, 1-(4-amino-5-fluoroquinazolin-7-yl)-3,6,6-trimethyl-6,7-dihydro-1H-indol-4(5H)-one], for which the Affinity result is given as “+”.
Turning to `CC1(C)CC(=O)c2c(C(F)(F)F)nn(-c3ccc4c(N)ncc(Br)c4c3)c2C1` [Compound 46, 1-(1-amino-4-bromoisoquinolin-6-yl)-6,6-dimethyl-3-(trifluoromethyl)-6,7-dihydro-1H-indazol-4(5H)-one], the Affinity result was “+”.
Still for that read-out and setting: the value for `Cc1nn(-c2ccc3c(N)ncc(C#N)c3c2)c2c1C(=O)CC(C)(C)C2` [Compound 98, 1-amino-6-(3,6,6-trimethyl-4-oxo-4,5,6,7-tetrahydro-1H-indazol-1-yl)isoquinoline-4-carbonitrile] was “++”; that for `CCCCSc1c(-n2cc(C)c3c2CC(C)CC3=O)ccc2c(N)ncnc12` (stereo not shown) [Compound 72, 1-(4-amino-8-(butylthio)quinazolin-7-yl)-3,6-dimethyl-6,7-dihydro-1H-indol-4(5H)-one] was “++”.
For `C#CCOc1cc(-n2cc(C)c3c2CC(C)(C)CC3=O)cc2ncnc(N)c12` [Compound 71, 1-(4-amino-5-(prop-2-ynyloxy)quinazolin-7-yl)-3,6,6-trimethyl-6,7-dihydro-1H-indol-4(5H)-one], the Affinity result is recorded as “+”.

Broadly, the IC50 is the point on the concentration scale where inhibition reaches its midpoint. Higher therefore signals weaker potency.
